Measurements published in US20260284020A1, “LATS KINASE INHIBITOR TO TREAT RETINAL DEGENERATION” (Children's Hospital Los Angeles, priority 2023, published 2026).
“Also recorded” adds a separate entry of the source.

Key:
[1] = system: primary human fetal RPE monolayers; experiment: In vitro wound healing (scratch) assay in RPE monolayers; assay type: cell-based; details: for wound healing (wound closure, change in wound area as a percentage): 1 μM, mean±SE
Experimental: Approximately 72 hours before wound induction, culture media for primary human fetal RPE either remained supplemented with 5% FBS as above (FBS-containing condition) or was replaced with culture media not containing FBS (FBS-free condition). Culture media for iPSC-derived RPE either remained as X-VIVO media as above (FBS-free condition) or was supplemented with 5% FBS (FBS-containing condition).
Following 72-hour acclimation period, RPE monolayers were then subjected to a controlled horizontal scratch using the WoundMaker Tool™ (Essen BioScience Ltd., Welwyn Garden City, United Kingdom) according to the protocol provided by the manufacturer. Wells were subsequently washed 1-2 times with their respective media in order to remove cell debris. Cells were then treated with either 1 μM DMSO (as control) or 1 μM TDI-011536 dissolved in either FBS-containing or FBS-free media. To label and track proliferating cells, cells were incubated with 10 μM 5-Ethynyl-2′-deoxyuridine (EdU) for 96 hours.
Each well was imaged immediately following the scratch injury with a DMI6000B microscope equipped with 10×/0.3 HC PL FLUOTAR Ph1 (Leica Microsystems, Buffalo Grove, IL) and ORCA-Flash4.0 LT camera (Hamamatsu Corp., Bridgewater, NJ). Along the length of each scratch, 2-3 ROIs measuring 1100 μm in length were imaged again 24, 48, 72, and 96 hours after the scratch injury. All ROIs were positioned in the central portion of the scratch. Coordinates of ROIs within each well were stored using Leica Application Suite X software. Non-uniform scratches and/or those with small width or resulting in monolayer detachment were excluded.
Scratch areas in μm^2 for each ROI were obtained using the Wand Tool in QuPath at each time point (e.g., 0, 24, 48, 72, and 96 hours after the scratch). Wound healing was quantified as the difference in scratch area at each time point normalized to (e.g., divided by) the total area immediately post-scratch, expressed as a percentage.
A wound healing assay, which involves creating a uniform scratch on a confluent monolayer of cells, is a commonly used method to study response to injury in vitro. To assess whether Hippo pathway inhibition promotes RPE regeneration, a wound healing assay was performed on primary human fetal RPE monolayers grown on 96-well plates in various culture conditions. RPE monolayers were subjected to a horizontal scratch and incubated with EdU and either LKI or vehicle. Wound closure was monitored every 24 hours for 96 hours total (FIGS. 1A and 1B).

[2] = system: primary human fetal RPE monolayers; experiment: PAX6 / RPE differentiation marker expression of EdU+ RPE cells after scratch; assay type: cell-based
Experimental: Ninety-six hours after the scratch, cells were immediately fixed with 4% paraformaldehyde (PFA) in phosphate-buffered saline (PBS) for 15 minutes at room temperature (RT). Cells were washed three times with PBS in between each step. Following fixation, cells were blocked and permeabilized with 3% bovine serum albumin (BSA) and 0.1% Triton X-100 in PBS for 2 hours at RT. Cells were then incubated with an EdU reaction cocktail according to the manufacturer's instructions for 30 minutes at RT, protected from light. Then, cells were incubated overnight with primary antibodies diluted in 3% BSA in PBS. The following morning, cells were incubated with secondary antibodies diluted in 3% BSA in PBS for 2 hours at RT, protected from light. Cells were counterstained with DAPI and then washed. A list of reagents and dilutions used can be found in Table 1.
Within each region, cell proliferation was quantified by dividing EdU/DAPI doubly positive cells by the total number of DAPI+ cells, expressed as a percentage. PAX6 expression was quantified as the ratio of PAX6+ nuclei among EdU/DAPI doubly positive nuclei, also expressed as a percentage.
In order to characterize RPE cell fate in response to Lats kinase inhibition in the context of injury, cells were stained with PAX6 and RPE65.

O=C(/N=c1\scc(CO)n1Cc1ccccc1)c1c[nH]c2ncccc12 [TDI-011536]
wound healing (wound closure, change in wound area as a percentage) ([1]; 24 hours after scratch, FBS-free media): 25.06±0.96%
difference in wound closure, LKI compared to control ([1]; 24 hours, FBS-free media): 8.25±1.49%
wound healing (wound closure, change in wound area as a percentage) ([1]; 48 hours after scratch, FBS-free media): 58.72±1.37%
difference in wound closure, LKI compared to control ([1]; 48 hours, FBS-free media): 17.53±2.00%
wound healing (wound closure, change in wound area as a percentage) ([1]; 72 hours after scratch, FBS-free media): 85.14±1.16%
difference in wound closure, LKI compared to control ([1]; 72 hours, FBS-free media): 19.78±1.81%
wound healing (wound closure, change in wound area as a percentage) ([1]; 96 hours after scratch, FBS-free media): 91.14±1.17%
difference in wound closure, LKI compared to control ([1]; 96 hours, FBS-free media): 14.02±1.85%
wound closure compared to DMSO (in words) ([1]; FBS-containing media, all timepoints): significantly increased wound closure at all timepoints
wound closure compared to control (in words) ([1]; FBS-free media, all time points 24-96 hours, listed as LKI): significantly increased at all time points; also recorded: significantly improved wound closure at all time points
EdU/PAX6 doubly positive cells in the scratch site, LKI vs control (in words) ([2]; 96 hours post-scratch): no significant difference
EdU+ cells within the original scratch site that expressed PAX6 ([2]; 96 hours post-scratch, scratch site): 99.67±1.46%
expression of early and late markers of RPE differentiation (in words) ([2]; in vitro injury model, after exposure): nearly all RPE cells expressed both early and late markers of RPE differentiation
